Assay results: EP4477653A1 (Perha Pharmaceuticals, priority 2023, dated 2024)
pIC50: −log10 of the molar value.

Each molecule was assayed against T1, human recombinant A3AR (expressed in HEK-293 cells) (Homo sapiens, UniProt P0DMS8) (assay: Adenosine receptors antagonism assay (Eurofins), [125I]-AB-MECA radioligand competition). Settings: [125I]-AB-MECA 0.15 nM, r.t., 120 min; IC50 from dose-response curves; read-out: Potency Class A3AR.
T1 construct: host or cells: HEK-293 cells
T1 sequence (P0DMS8 1-318): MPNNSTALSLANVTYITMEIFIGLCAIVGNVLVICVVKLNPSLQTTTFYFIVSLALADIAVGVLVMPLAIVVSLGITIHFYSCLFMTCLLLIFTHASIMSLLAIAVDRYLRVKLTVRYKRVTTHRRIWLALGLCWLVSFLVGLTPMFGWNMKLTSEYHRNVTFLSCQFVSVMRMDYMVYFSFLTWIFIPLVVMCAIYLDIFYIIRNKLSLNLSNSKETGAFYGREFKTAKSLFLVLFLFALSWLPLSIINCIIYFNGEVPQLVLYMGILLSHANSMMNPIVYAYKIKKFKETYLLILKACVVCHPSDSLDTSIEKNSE
Assay type: binding
Description: Assays were carried out at r.t. for 120 min. Compounds were initially tested at three concentrations (0.01, 0.1, 1 µM). […] IC50 values, which is the concentration causing a half-maximal inhibition of control specific binding, and Hill coefficients (nH) were determined by non-linear regression analysis of the competition curves generated with mean replicate values using Hill equation curve fitting. The inhibition constants (Ki) were calculated using the Cheng Prusoff equation.

| SMILES | pIC50 |
| --- | --- |
| CCC(CC)Nc1cc(NCCCc2ccccc2)c2nnc(C(C)C)n2n1 [compound 170, N6-(1-ethylpropyl)-3-isopropyl-N8-(3-phenylpropyl)-[1,2,4]triazolo[4,3-b]pyridazine-6,8-diamine] | 8.00 to 9.00 |
| CCC(CC)Nc1cc(Nc2ccccc2)c2nnc(C3CC3)n2n1 [compound 171, 3-cyclopropyl-N6-(1-ethylpropyl)-N8-phenyl-[1,2,4]triazolo[4,3-b]pyridazine-6,8-diamine] | > 9.00 |
| CCC(CC)Nc1cc(Nc2ccccn2)c2nnc(C3CC3)n2n1 [compound 172, 3-cyclopropyl-N6-(1-ethylpropyl)-N8-(2-pyridyl)-[1,2,4]triazolo[4,3-b]pyridazine-6,8-diamine] | > 9.00 |
| CCC(CC)Nc1cc(Nc2cccnc2)c2nnc(C3CC3)n2n1 [compound 173, 3-cyclopropyl-N6-(1-ethylpropyl)-N8-(3-pyridyl)-[1,2,4]triazolo[4,3-b]pyridazine-6,8-diamine] | > 9.00 |
| CCC(CC)Nc1cc(Nc2ccncc2)c2nnc(C3CC3)n2n1 [compound 174, 3-cyclopropyl-N6-(1-ethylpropyl)-N8-(4-pyridyl)-[1,2,4]triazolo[4,3-b]pyridazine-6,8-diamine] | > 9.00 |
| CCC(CC)Nc1cc(Nc2ccnnc2)c2nnc(C3CC3)n2n1 [compound 176, 3-cyclopropyl-N6-(pentan-3-yl)-N8-(pyridazin-4-yl)-[1,2,4]triazolo[4,3-b]pyridazine-6,8-diamine] | 8.00 to 9.00 |
| CCC(CC)Nc1cc(Nc2ccncn2)c2nnc(C3CC3)n2n1 [compound 177, 3-cyclopropyl-N6-(pentan-3-yl)-N8-(pyrimidin-4-yl)-[1,2,4]triazolo[4,3-b]pyridazine-6,8-diamine] | > 9.00 |
| CCC(CC)Nc1cc(Nc2cncnc2)c2nnc(C3CC3)n2n1 [compound 178, 3-cyclopropyl-N6-(1-ethylpropyl)-N8-pyrimidin-5-yl-[1,2,4]triazolo[4,3-b]pyridazine-6,8-diamine] | > 9.00 |
| CCC(CC)Nc1cc(Nc2ncccn2)c2nnc(C3CC3)n2n1 [compound 179, 3-cyclopropyl-N6-(pentan-3-yl)-N8-(pyrimidin-2-yl)-[1,2,4]triazolo[4,3-b]pyridazine-6,8-diamine] | 7.00 to 8.00 |
| CCC(CC)Nc1cc(Nc2cnccn2)c2nnc(C3CC3)n2n1 [compound 180, 3-cyclopropyl-N6-(pentan-3-yl)-N8-(pyrazin-2-yl)-[1,2,4]triazolo[4,3-b]pyridazine-6,8-diamine] | > 9.00 |
| CC[C@H](CO)Nc1cc(Nc2cccnn2)c2nnc(C3CC3)n2n1 [compound 181, (R)-2-((3-cyclopropyl-8-(pyridazin-3-ylamino)-[1,2,4]triazolo[4,3-b]pyridazin-6-yl)amino)butan-1-ol] | > 9.00 |
| CC[C@@H](CO)Nc1cc(Nc2cccnn2)c2nnc(C3CC3)n2n1 [compound 182, (S)-2-((3-cyclopropyl-8-(pyridazin-3-ylamino)-[1,2,4]triazolo[4,3-b]pyridazin-6-yl)amino)butan-1-ol] | > 9.00 |
| CCC(CC)Nc1cc(Nc2cccc(OC)n2)c2nnc(C3CC3)n2n1 [compound 183, 3-cyclopropyl-N8-(6-methoxypyridin-2-yl)-N6-(pentan-3-yl)-[1,2,4]triazolo[4,3-b]pyridazine-6,8-diamine] | > 9.00 |
| CCC(CC)Nc1cc(Nc2cccnc2OC)c2nnc(C3CC3)n2n1 [compound 184, 3-cyclopropyl-N8-(2-methoxypyridin-3-yl)-N6-(pentan-3-yl)-[1,2,4]triazolo[4,3-b]pyridazine-6,8-diamine] | 7.00 to 8.00 |
| CC[C@H](CO)Nc1cc(NCCc2ccccn2)c2nnc(C3CC3)n2n1 [compound 185, (2R)-2-[[3-cyclopropyl-8-[2-(2-pyridyl)ethylamino]-[1,2,4]triazolo[4,3-b]pyridazin-6-yl]amino]butan-1-ol] | 7.00 to 8.00 |
| c1ccc(CNc2cc(NCc3ccccn3)c3nnc(C4CC4)n3n2)cc1 [compound 186, N6-benzyl-3-cyclopropyl-N8-(pyridin-2-ylmethyl)-[1,2,4]triazolo[4,3-b]pyridazine-6,8-diamine] | 8.00 to 9.00 |
| COc1ccc(CNc2cc(NCc3ccccn3)c3nnc(C4CC4)n3n2)cc1 [compound 187, 3-cyclopropyl-N6-(4-methoxybenzyl)-N8-(pyridin-2-ylmethyl)-[1,2,4]triazolo[4,3-b]pyridazine-6,8-diamine] | 8.00 to 9.00 |
| COc1ccc(CN(C)c2cc(NCc3ccccn3)c3nnc(C4CC4)n3n2)cc1 [compound 188, 3-cyclopropyl-N6-(4-methoxybenzyl)-N6-methyl-N8-(pyridin-2-ylmethyl)-[1,2,4]triazolo[4,3-b]pyridazine-6,8-diamine] | 6.00 to 7.00 |

| SMILES | pIC50 |
| --- | --- |
| CCNc1cc(NCc2ccccn2)c2nnc(C3CC3)n2n1 [compound 189, 3-cyclopropyl-N6-ethyl-N8-(2-pyridylmethyl)-[1,2,4]triazolo[4,3-b]pyridazine-6,8-diamine] | 7.00 to 8.00 |
| CCCNc1cc(NCc2ccccn2)c2nnc(C3CC3)n2n1 [compound 190, 3-cyclopropyl-N6-propyl-N8-(pyridin-2-ylmethyl)-[1,2,4]triazolo[4,3-b]pyridazine-6,8-diamine] | 7.00 to 8.00 |
| CCCCNc1cc(NCc2ccccn2)c2nnc(C3CC3)n2n1 [compound 191, N6-butyl-3-cyclopropyl-N8-(pyridin-2-ylmethyl)-[1,2,4]triazolo[4,3-b]pyridazine-6,8-diamine] | 8.00 to 9.00 |
| CC(C)Nc1cc(NCc2ccccn2)c2nnc(C3CC3)n2n1 [compound 192, 3-cyclopropyl-N6-isopropyl-N8-(pyridin-2-ylmethyl)-[1,2,4]triazolo[4,3-b]pyridazine-6,8-diamine] | 8.00 to 9.00 |
| CC(C)CNc1cc(NCc2ccccn2)c2nnc(C3CC3)n2n1 [compound 194, 3-cyclopropyl-N6-isobutyl-N8-(pyridin-2-ylmethyl)-[1,2,4]triazolo[4,3-b]pyridazine-6,8-diamine] | 7.00 to 8.00 |
| CC(C)(C)Nc1cc(NCc2ccccn2)c2nnc(C3CC3)n2n1 [compound 195, N6-(tert-butyl)-3-cyclopropyl-N8-(pyridin-2-ylmethyl)-[1,2,4]triazolo[4,3-b]pyridazine-6,8-diamine] | 8.00 to 9.00 |
| CCC(CC)CNc1cc(NCc2ccccn2)c2nnc(C3CC3)n2n1 [compound 196, 3-cyclopropyl-N6-(2-ethylbutyl)-N8-(pyridin-2-ylmethyl)-[1,2,4]triazolo[4,3-b]pyridazine-6,8-diamine] | 8.00 to 9.00 |
| c1ccc(CNc2cc(NC3CC3)nn3c(C4CC4)nnc23)nc1 [compound 197, N6,3-dicyclopropyl-N8-(pyridin-2-ylmethyl)-[1,2,4]triazolo[4,3-b]pyridazine-6,8-diamine] | 7.00 to 8.00 |
| c1ccc(CNc2cc(NC3CCC3)nn3c(C4CC4)nnc23)nc1 [compound 198, N6-cyclobutyl-3-cyclopropyl-N8-(pyridin-2-ylmethyl)-[1,2,4]triazolo[4,3-b]pyridazine-6,8-diamine] | 8.00 to 9.00 |
| c1ccc(CNc2cc(NC3CCCC3)nn3c(C4CC4)nnc23)nc1 [compound 199, N6-cyclopentyl-3-cyclopropyl-N8-(pyridin-2-ylmethyl)-[1,2,4]triazolo[4,3-b]pyridazine-6,8-diamine] | 8.00 to 9.00 |
| c1ccc(CNc2cc(NC3CCCCC3)nn3c(C4CC4)nnc23)nc1 [compound 200, N6-cyclohexyl-3-cyclopropyl-N8-(pyridin-2-ylmethyl)-[1,2,4]triazolo[4,3-b]pyridazine-6,8-diamine] | 8.00 to 9.00 |
| c1ccc(CNc2cc(NC3CCCCCC3)nn3c(C4CC4)nnc23)nc1 [compound 201, N6-cycloheptyl-3-cyclopropyl-N8-(pyridin-2-ylmethyl)-[1,2,4]triazolo[4,3-b]pyridazine-6,8-diamine] | 8.00 to 9.00 |
| c1ccc(CNc2cc(NC34CC5CC(CC(C5)C3)C4)nn3c(C4CC4)nnc23)nc1 [compound 202, N6-((3s,5s,7s)-adamantan-1-yl)-3-cyclopropyl-N8-(pyridin-2-ylmethyl)-[1,2,4]triazolo[4,3-b]pyridazine-6,8-diamine] | 8.00 to 9.00 |
| c1ccc(CNc2cc(NCC3CC3)nn3c(C4CC4)nnc23)nc1 [compound 203, 3-cyclopropyl-N6-(cyclopropylmethyl)-N8-(pyridin-2-ylmethyl)-[1,2,4]triazolo[4,3-b]pyridazine-6,8-diamine] | 7.00 to 8.00 |
| c1ccc(CNc2cc(NCC3CCC3)nn3c(C4CC4)nnc23)nc1 [compound 204, N6-(cyclobutylmethyl)-3-cyclopropyl-N8-(pyridin-2-ylmethyl)-[1,2,4]triazolo[4,3-b]pyridazine-6,8-diamine] | 8.00 to 9.00 |
| c1ccc(CNc2cc(NC3CC4(CCC4)C3)nn3c(C4CC4)nnc23)nc1 [compound 205, 3-cyclopropyl-N8-(pyridin-2-ylmethyl)-N6-(spiro[3.3]heptan-2-yl)-[1,2,4]triazolo[4,3-b]pyridazine-6,8-diamine] | 8.00 to 9.00 |
| CC1(CNc2cc(NCc3ccccn3)c3nnc(C4CC4)n3n2)CCC1 [compound 206, 3-cyclopropyl-N6-((1-methylcyclobutyl)methyl)-N8-(pyridin-2-ylmethyl)-[1,2,4]triazolo[4,3-b]pyridazine-6,8-diamine] | 8.00 to 9.00 |

Same assay, conditions: read-out: Potency Class A3AR; [125I]-AB-MECA 0.15 nM, r.t., 120 min; IC50 from dose-response curves

| SMILES | pIC50 |
| --- | --- |
| CCC(CC)Nc1cc(NC(=O)Cc2cccnc2)c2nnc(C(C)C)n2n1 [compound 168, N-[6-(1-ethylpropylamino)-3-isopropyl-[1.2.4]triazolo[4,3-b]pyridazin-8-yl]-2-(3-pyridyl)acetamide] | > 9.00 |
| CC[C@H](CO)Nc1cc(NCc2ccccn2)c2nnc(C(C)C)n2n1 [compound 169] | 7.00 to 8.00 |
